Measurements as given in ChEMBL document CHEMBL1201862, “PubChem BioAssay data set” (2004).
Activity calls are given as the source filed them.

Legend:
Genome polyprotein = Genome polyprotein (dengue virus type 2, UniProt P29990); test: flavivirus cap methylation enzyme inhibition – biochemical, confirmation dose response, primary screen (AID 588689); type: functional
[1] = target: FAD-linked sulfhydryl oxidase ALR (Homo sapiens, UniProt P55789); test: ALR-catalysed DTT oxidation blockers – biochemical, H2O2 detection, luminescence, cherry-pick, dose response (AID 493248)
Sequence of FAD-linked sulfhydryl oxidase ALR (P55789 whole entry): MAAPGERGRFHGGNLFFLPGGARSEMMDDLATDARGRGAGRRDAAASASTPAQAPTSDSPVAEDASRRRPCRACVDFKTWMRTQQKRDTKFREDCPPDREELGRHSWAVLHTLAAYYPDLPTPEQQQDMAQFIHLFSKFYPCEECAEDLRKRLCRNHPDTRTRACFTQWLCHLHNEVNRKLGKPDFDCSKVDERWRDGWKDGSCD

[2] = target: T1, Polyadenylate-binding protein 1 (Homo sapiens, UniProt P11940); test: MLLE binding blockers, Cy5 peptide tracer – biochemical, fluorescence polarization, Cy5-PAM2 peptide, secondary, miRNA deadenylation inhibitor project, dose response (AID 602260); type: functional; conditions: read-out: IC50_Mean
T1 sequence (P11940 whole entry, the tested form may be a part): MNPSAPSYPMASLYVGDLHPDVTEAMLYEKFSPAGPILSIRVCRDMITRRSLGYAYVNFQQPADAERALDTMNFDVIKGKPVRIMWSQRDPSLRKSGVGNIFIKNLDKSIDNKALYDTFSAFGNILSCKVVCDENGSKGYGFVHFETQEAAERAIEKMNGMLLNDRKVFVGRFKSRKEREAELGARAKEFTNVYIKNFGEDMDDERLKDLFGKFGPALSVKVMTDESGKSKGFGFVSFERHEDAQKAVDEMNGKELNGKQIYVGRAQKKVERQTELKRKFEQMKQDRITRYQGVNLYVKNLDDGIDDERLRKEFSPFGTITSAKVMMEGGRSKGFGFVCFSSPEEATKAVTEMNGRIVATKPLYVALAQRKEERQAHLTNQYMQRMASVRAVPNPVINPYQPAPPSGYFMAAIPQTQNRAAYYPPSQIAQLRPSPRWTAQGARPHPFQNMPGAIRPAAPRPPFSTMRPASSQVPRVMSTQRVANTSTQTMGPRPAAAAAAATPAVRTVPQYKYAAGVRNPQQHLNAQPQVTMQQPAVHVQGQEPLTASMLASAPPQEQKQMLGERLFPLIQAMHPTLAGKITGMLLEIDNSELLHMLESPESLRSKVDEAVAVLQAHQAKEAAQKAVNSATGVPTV

[3] = target: T1, Polyadenylate-binding protein 1; test: MLLE domain peptide-binding blockers, IC50 – biochemical, fluorescence polarization, FITC-PAM2 peptide, dose response (AID 602259); type: functional; conditions: read-out: IC50_Mean
BJ [4] = test: cells; type: functional, cell-based; conditions: Homo sapiens
[5] = DRD fibroblast viability loss – cell-based, non-viral oncogenic, luminescence, dose response (AID 1934); type: functional; conditions: Homo sapiens
BJ [6] = test: BJ-TERT fibroblast viability loss – cell-based, RAS-independent, luminescence, dose response (AID 1933); type: functional; conditions: Homo sapiens
BJ [7] = test: BJ-TERT-LT-ST fibroblast viability loss – cell-based, RAS-independent, luminescence, dose response (AID 1935); type: functional; conditions: Homo sapiens;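 note: BJ fibroblasts immortalized with TERT plus LT and ST oncogenes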
[8] = Trypanosoma cruzi growth suppression in host cells – NIH3T3 host cells, beta-gal luminescence, confirmation (AID 2044); type: functional, cell-based;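 note: intracellular parasites grown in NIH/3T3 mouse fibroblasts as host cells; luminescent beta-galactosidase reporter signal from transgenic T. cruzi replicating inside host cells; inhibitors lower the luminescence signal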
[9] = NIH3T3 cell viability loss – ATP luminescence, mouse fibroblasts, counter-screen, dose response (AID 2010); type: functional, cell-based;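 note: cells exposed to compound for about 90 hours before reading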
[10] = target: T2, Replicative DNA helicase DnaB (Mycobacterium tuberculosis, UniProt P9WMR3); test: DnaB intein splicing inhibitors, dose response, biochemical, cell-free fluorescence (AID 449749); type: functional
T2 sequence (P9WMR3 whole entry): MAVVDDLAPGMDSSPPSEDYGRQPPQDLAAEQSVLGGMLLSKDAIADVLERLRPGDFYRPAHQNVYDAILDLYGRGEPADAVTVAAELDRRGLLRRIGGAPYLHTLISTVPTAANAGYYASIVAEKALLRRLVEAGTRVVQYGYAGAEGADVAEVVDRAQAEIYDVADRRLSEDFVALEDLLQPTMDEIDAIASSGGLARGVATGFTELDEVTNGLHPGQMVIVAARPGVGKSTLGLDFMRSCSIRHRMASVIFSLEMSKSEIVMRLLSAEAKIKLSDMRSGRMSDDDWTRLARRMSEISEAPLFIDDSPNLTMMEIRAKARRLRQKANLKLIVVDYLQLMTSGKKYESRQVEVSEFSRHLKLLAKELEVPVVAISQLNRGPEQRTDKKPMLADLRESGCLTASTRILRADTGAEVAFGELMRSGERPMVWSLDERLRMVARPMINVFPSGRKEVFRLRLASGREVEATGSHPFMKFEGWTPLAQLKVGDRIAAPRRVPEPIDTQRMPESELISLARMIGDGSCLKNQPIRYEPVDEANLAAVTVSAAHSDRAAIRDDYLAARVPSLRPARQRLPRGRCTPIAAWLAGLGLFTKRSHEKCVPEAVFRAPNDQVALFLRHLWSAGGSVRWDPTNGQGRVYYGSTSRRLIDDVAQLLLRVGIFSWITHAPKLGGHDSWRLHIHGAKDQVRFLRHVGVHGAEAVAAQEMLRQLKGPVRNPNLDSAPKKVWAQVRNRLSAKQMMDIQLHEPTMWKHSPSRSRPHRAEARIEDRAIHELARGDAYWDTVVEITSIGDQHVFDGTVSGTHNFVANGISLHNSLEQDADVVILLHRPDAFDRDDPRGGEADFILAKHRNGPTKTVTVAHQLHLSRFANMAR

Protein RecA = target: T3, Protein RecA (Mycobacterium tuberculosis, UniProt P9WHJ3); test: Fluorescence Cell-Free Homogeneous Dose Retest to Identify Inhibitors of RecA-Intein Splicing Activity. [Related pubchem assays (depositor defined):AID2097, AID2223, AID489010, AID492950]; type: functional
T3 sequence (P9WHJ3 whole entry): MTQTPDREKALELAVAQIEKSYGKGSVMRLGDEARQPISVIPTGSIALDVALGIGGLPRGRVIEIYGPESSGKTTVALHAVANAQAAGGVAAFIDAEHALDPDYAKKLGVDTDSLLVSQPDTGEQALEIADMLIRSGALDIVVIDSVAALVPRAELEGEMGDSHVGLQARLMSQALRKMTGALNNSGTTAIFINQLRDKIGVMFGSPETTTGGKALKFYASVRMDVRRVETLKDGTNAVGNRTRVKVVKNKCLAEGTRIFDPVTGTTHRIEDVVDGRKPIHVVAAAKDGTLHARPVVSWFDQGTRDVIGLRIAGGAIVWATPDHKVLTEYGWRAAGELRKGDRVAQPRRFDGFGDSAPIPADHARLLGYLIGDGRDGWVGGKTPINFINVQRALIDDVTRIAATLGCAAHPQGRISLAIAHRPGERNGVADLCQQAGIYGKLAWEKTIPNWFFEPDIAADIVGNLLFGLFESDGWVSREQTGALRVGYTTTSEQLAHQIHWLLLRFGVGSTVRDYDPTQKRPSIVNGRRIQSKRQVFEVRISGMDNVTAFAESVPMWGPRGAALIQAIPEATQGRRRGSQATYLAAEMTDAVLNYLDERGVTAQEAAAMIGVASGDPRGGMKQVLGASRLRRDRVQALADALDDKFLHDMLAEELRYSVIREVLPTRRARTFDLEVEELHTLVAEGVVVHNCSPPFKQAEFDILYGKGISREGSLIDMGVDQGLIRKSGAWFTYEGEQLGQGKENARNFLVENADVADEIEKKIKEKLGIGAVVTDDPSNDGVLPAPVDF

SN12K1 = test: cells; type: functional; conditions: Homo sapiens
P388/ADR = test: cells; type: functional; conditions: Mus musculus
P388 = test: cells; type: functional; conditions: Mus musculus
[11] = target: T4, Rac GTPase-activating protein 1 (Homo sapiens, UniProt Q9H0H5); test: blockers of MgcRacGAP-driven Rac1 GTP hydrolysis – biochemical, ADP Hunter fluorescence, primary and confirmatory, confirmation (AID 624330); type: functional
T4 sequence (Q9H0H5 whole entry): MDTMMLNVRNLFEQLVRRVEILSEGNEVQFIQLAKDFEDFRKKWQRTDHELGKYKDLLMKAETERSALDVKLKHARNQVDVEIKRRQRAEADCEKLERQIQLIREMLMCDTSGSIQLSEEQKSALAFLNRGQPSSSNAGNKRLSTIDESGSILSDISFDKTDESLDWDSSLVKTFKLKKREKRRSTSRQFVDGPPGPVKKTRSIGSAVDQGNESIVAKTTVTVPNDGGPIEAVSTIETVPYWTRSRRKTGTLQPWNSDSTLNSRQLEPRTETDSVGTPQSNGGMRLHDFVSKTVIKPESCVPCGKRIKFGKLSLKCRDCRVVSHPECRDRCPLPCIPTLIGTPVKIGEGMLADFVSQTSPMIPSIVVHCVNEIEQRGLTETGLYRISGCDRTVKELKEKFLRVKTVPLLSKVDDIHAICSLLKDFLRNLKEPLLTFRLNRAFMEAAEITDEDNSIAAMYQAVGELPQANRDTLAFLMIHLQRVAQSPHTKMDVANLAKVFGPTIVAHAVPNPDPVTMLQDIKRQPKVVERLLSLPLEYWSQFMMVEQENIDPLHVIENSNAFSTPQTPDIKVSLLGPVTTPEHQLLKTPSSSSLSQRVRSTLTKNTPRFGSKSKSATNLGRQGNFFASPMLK

Sequence of Genome polyprotein (P29990 2492-3391 limits assumed): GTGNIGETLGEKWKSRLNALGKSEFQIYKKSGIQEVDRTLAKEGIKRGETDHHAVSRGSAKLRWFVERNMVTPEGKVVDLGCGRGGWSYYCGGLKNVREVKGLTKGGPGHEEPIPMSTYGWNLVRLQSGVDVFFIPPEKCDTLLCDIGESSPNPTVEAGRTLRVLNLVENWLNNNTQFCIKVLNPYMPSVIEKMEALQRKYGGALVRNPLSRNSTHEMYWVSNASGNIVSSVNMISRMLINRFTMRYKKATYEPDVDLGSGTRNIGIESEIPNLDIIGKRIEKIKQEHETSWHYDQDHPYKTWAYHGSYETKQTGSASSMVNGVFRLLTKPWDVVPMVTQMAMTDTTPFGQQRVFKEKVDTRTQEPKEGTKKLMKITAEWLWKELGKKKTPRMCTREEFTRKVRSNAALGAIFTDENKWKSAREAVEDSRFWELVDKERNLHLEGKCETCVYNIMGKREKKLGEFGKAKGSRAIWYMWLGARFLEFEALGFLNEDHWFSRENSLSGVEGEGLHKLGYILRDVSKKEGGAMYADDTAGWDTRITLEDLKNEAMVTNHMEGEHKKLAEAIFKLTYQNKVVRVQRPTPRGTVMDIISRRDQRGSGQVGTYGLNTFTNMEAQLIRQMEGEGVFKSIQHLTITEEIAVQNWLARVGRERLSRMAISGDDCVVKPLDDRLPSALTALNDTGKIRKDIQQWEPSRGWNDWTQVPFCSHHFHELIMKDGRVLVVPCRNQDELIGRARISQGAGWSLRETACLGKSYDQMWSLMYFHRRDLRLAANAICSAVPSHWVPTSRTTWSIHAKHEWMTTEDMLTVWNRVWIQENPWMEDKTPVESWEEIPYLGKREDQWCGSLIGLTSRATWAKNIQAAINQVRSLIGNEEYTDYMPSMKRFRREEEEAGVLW

With `O=C(O)c1ccccc1-c1ccccc1C(=O)Nc1ccc2c(c1)C(=O)c1ccccc1-2` the IC50 (Genome polyprotein) was 58.9 µM (active).
For `C[C@H](N)CN1CCc2ccc(Br)cc21`, the AC50 [1] was 0.84 µM (active).
With `COc1ccccc1-n1c(N)c(C(N)=O)sc1=S` the IC50 [2] was > 66 µM (inactive) and the IC50 [3] was > 66 µM (inactive).
With `COc1ccc(NC(=O)C(=O)NCCC2CCCCN2S(=O)(=O)c2ccccc2)cc1` (stereo not drawn) the EC50 (BJ [4]) was 19.8 µM (active), the EC50 [5] was 13.5 µM (inconclusive) and the EC50 (BJ [6]) was 22.8 µM (active). For the same compound, the EC50 (BJ [7]) was 23.4 µM (active).
In the case of `Nc1cccc(C(=O)Nc2ccc3[nH]c(-c4cccnc4)nc3c2)c1`, the AC50 [1] was 1.07 µM (active).
For `C[C@H](NS(=O)(=O)c1ccc2c(c1)OCCCO2)C(=O)N1CCN(c2ccc(F)cc2)CC1`, the IC50 [2] was > 66 µM (inactive) and the IC50 [3] was > 66 µM (inactive).
For `CCN(CC)c1ccc(CNCCc2ccccc2F)cc1`, the AC50 [1] was 1.36 µM (active).
For `CCN(CC)S(=O)(=O)c1ccc(N2CCOCC2)c(NC(=O)CCC2CCCCC2)c1`, the IC50 [2] was > 66 µM (inactive) and the IC50 [3] was > 66 µM (inactive).
For `Cc1cc([N+](=O)[O-])ccc1N1C(=O)c2ccc(C(=O)Nc3ccccc3C(=O)O)cc2C1=O`, the AC50 [1] was 57 µM (active) and the IC50 (Genome polyprotein) was 67.9 µM (active).
For `COc1ccccc1NS(=O)(=O)c1cc(NC(=O)Nc2cccc(C)c2)ccc1N1CCCCC1`, the EC50 [8] was 2.16 µM (active), the IC50 [2] was > 66 µM (inactive) and the IC50 [3] was > 66 µM (inactive). The EC50 [9] was > 60 µM (not active).
For `CC(=O)Nc1ccc(Nc2ccc3c4c(cc(=O)n3C)-c3ccccc3C(=O)c24)cc1`, the IC50 [2] was > 66 µM (inactive) and the IC50 [3] was 59.4 µM (inactive).
With `CC(=O)Oc1ccc(/C=C2/C(=O)N(c3ccccc3)N=C2C)cc1` the AC50 [10] was 2.76 µM (active), the IC50 (Genome polyprotein) was 56 µM (active) and the EC50 (Protein RecA) was 2.72 µM (active).
For `CCCn1cnc2cc(NCc3ccccc3O)ccc21`, the AC50 [1] was 3.92 µM (active).
In the case of `CCn1c(-c2cc(Br)ccc2O)n[nH]c1=S`, the AC50 [1] was 4.27 µM (active).
With `C[C@@H]1CCC2[C@](C)(CO)[C@@H](O)CC[C@]2(C)[C@@]12CC[C@@](CO)(CC(=O)O)O2` (stereo partly drawn) the IC50 [2] was > 66 µM (inactive) and the IC50 [3] was > 66 µM (inactive).
For `C=CCn1c2ccccc2c2c(C)c3cnccc3c(C)c21`, the GI50 (SN12K1) was 8.41 µM (inactive), the GI50 (P388/ADR) was 11.2 µM (inactive) and the GI50 (P388) was 3.34 µM (inactive).
In the case of `COc1cc(/C=C(/C#N)C(N)=O)ccc1O`, the GI50 (SN12K1) was > 100 µM (inactive), the GI50 (P388/ADR) was > 100 µM (inactive) and the GI50 (P388) was > 100 µM (inactive).
With `C=CC12CN(C)C3C4COC(CC41)C1(C(=O)Nc4ccccc41)C32` (stereo not drawn) the GI50 (SN12K1) was 185 µM (inactive), the GI50 (P388/ADR) was 136 µM (inactive) and the GI50 (P388) was 63.1 µM (inactive).
In the case of `CC1CCC2(C(=O)O)CCC3(C)C(=CCC4C5(C)CCC(O)C(C)(C)C5CCC43C)C2C1C` (stereo not drawn), the GI50 (SN12K1) was 4.12 µM (inactive), the GI50 (P388/ADR) was 2.1 µM (inactive) and the GI50 (P388) was 2.27 µM (inactive).
For `c1cc(-c2ccoc2)n2ccnc2c1`, the IC50 [2] was > 66 µM (inactive) and the IC50 [3] was > 66 µM (inactive).
With `N/C(=N\O)N/N=C\c1c(O)cc(O)cc1O` the GI50 (SN12K1) was 15.7 µM (inactive), the GI50 (P388/ADR) was 17.5 µM (inactive) and the GI50 (P388) was > 44.4 µM (inactive).
In the case of `CC1=C2C(O)C(C(C)C(=O)NCC(C)C)CCC2(C)C=CC1=O` (stereo not drawn), the GI50 (SN12K1) was > 100 µM (inactive), the GI50 (P388/ADR) was > 100 µM (inactive) and the GI50 (P388) was > 100 µM (inactive).
In the case of `Cc1[nH]c(=O)[nH]c(=O)c1/C=C/C(=O)NC(CO)C[S+]([O-])Cc1ccccc1` (stereo not drawn), the GI50 (SN12K1) was > 300 µM (inactive), the GI50 (P388/ADR) was > 300 µM (inactive) and the GI50 (P388) was > 179 µM (inactive).
For `O=C1c2ccccc2OCC1/C=N/O` (stereo not drawn), the GI50 (SN12K1) was 40.5 µM (inactive) and the GI50 (P388) was 18.9 µM (inactive).
In the case of `COc1cc(-c2ccc(/N=N/c3ccc4c(S(=O)(=O)O)cc(S(=O)(=O)O)c(N)c4c3O)c(OC)c2)ccc1/N=N/c1ccc2c(S(=O)(=O)O)cc(S(=O)(=O)O)c(N)c2c1O`, the GI50 (SN12K1) was > 100 µM (inactive), the GI50 (P388/ADR) was > 100 µM (inactive) and the GI50 (P388) was > 100 µM (inactive).
In the case of `CC1[C@@H]2CC=C3[C@H]4CCC5Cc6nc7c(nc6C[C@@]5(C)C4CC(=O)[C@]32CO[C@]12OC(C)(C)CC2O)CC1CC[C@@H]2C3=C[C@H]4O[C@@]5(O[C@@](C)(CO)C[C@@H]5O)C(C)[C@@]4(O)[C@]3(C)[C@@H](O)CC2[C@]1(C)C7` (stereo partly drawn), the GI50 (SN12K1) was 0.000365 µM (active), the GI50 (P388/ADR) was 0.00152 µM (active) and the GI50 (P388) was 0.000365 µM (active).
For `CC/C(C)=N/Nc1nc(-c2cc3cccc(OC)c3oc2=O)cs1`, the AC50 [1] was 0.091 µM (active).
For `COc1cc(/C=N/NC(=O)CCNC(=O)c2ccccc2Cl)ccc1O`, the IC50 [11] was 29 µM (active) and the AC50 [1] was 3.1 µM (active).
